Measured values as given in ChEMBL document CHEMBL1153489, “Benzothiophene inhibitors of MK2. Part 1: structure-activity relationships, assessments of selectivity and cellular potency” (Bioorg Med Chem Lett, 2009).
pIC50: −log10 of the molar value. The source made the active and inactive calls. The calls are words filed in the database; no cut-off is given here.

How the values were obtained:
[1] = molecular target: T1, MAP kinase-activated protein kinase 2 (Homo sapiens, UniProt P49137); assay: Inhibition of MK2 in human U937 cells assessed as blockade of LPS-stimulated TNFalpha production; format: cell-based, U-937
T1 sequence (P49137 whole entry): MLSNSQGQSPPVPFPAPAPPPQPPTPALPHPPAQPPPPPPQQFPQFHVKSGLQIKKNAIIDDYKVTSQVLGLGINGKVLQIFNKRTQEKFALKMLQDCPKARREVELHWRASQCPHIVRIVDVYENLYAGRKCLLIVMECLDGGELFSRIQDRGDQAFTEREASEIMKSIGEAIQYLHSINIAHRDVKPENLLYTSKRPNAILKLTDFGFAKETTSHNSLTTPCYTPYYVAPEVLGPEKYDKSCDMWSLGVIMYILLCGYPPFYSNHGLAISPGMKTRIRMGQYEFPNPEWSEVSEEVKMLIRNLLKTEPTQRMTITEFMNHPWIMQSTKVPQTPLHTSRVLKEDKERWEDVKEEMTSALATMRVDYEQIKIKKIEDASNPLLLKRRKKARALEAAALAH

[2] = molecular target: T1, MAP kinase-activated protein kinase 2; assay: Inhibition of MK2
[3] = molecular target: Mitogen-activated protein kinase 9 (Homo sapiens) (UniProt P45984); assay: Inhibition of JNK2 phosphorylation in LPS-stimulated human U937 cells; format: cell-based; details: U-937
Mitogen-activated protein kinase 9 (Homo sapiens), sequence (P45984 whole entry, looked up): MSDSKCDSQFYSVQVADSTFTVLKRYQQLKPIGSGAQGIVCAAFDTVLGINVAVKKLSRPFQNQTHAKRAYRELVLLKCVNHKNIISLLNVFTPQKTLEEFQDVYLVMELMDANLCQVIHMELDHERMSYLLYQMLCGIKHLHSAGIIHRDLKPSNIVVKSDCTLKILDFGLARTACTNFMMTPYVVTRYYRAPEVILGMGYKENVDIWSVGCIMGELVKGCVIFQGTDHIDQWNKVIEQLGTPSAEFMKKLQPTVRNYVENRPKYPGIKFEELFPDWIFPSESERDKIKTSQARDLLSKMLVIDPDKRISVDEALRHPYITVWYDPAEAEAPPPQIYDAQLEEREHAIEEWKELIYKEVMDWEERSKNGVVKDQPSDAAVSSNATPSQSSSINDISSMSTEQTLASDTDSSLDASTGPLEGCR

[4] = molecular target: MAP kinase p38 (Homo sapiens) (UniProt O15264+Q15759+Q16539+P53778); assay: Inhibition of p38 phosphorylation in LPS-stimulated human U937 cells; format: cell-based; details: U-937

Compound | pIC50 [1] | pIC50 [2] | Activity [3] | Activity [4]
C[C@@H]1CNc2c(sc3ccc(O)cc23)C(=O)N1 | 5.46 | 6.72 | – | –
COc1ccc2sc3c(c2c1)NC[C@@H](CN)NC3=O | 5.59 | 8.30 | – | –
CCCNC[C@@H]1CNc2c(sc3ccc(OC)cc23)C(=O)N1 | 4.83 | 6.35 | – | –
COc1ccc2sc3c(c2c1)NC[C@@H](CNCc1ccccc1)NC3=O | 4.68 | 6.24 | – | –
CC(C)COc1ccc2sc3c(c2c1)NC[C@@H](C)NC3=O | 5.74 | 7.52 | – | –
COc1ccc2sc3c(c2c1)NC[C@@H](CN1CCOCC1)NC3=O | – | < 4.70 | – | –
COc1ccc2sc3c(c2c1)NC[C@@H](CO)NC3=O | 6.40 | 7.85 | inactive | inactive
COc1ccc2sc3c(c2c1)CCCNC3=O | 5.33 | 6.30 | – | –
CCNC[C@@H]1CNc2c(sc3ccc(OC)cc23)C(=O)N1 | 4.67 | 6.24 | – | –
COCCOc1ccc2sc3c(c2c1)NC[C@@H](C)NC3=O | 5.51 | 6.57 | – | –
CCC[C@@H]1CNc2c(sc3ccc(OC)cc23)C(=O)N1 | 5.26 | 5.82 | – | –
COc1cccc(COc2ccc3sc4c(c3c2)NC[C@@H](C)NC4=O)c1 | 5.34 | 6.96 | – | –
C[C@@H]1CNc2c(sc3ccc(OCC4CC4)cc23)C(=O)N1 | 4.57 | 5.88 | – | –
COC(=O)COc1ccc2sc3c(c2c1)NC[C@@H](C)NC3=O | 4.11 | 5.46 | – | –
COc1ccc2sc3c(c2c1)NC[C@@H](CN(C)Cc1ccccc1)NC3=O | 4.62 | 5.72 | – | –
COc1ccc2sc3c(c2c1)NCCNC3=O | 5.85 | 6.74 | – | –
COc1ccc2sc3c(c2c1)NC[C@@H](CN1CCCC1)NC3=O | – | < 4.70 | – | –
COc1ccc2sc3c(c2c1)SCCNC3=O | 5.26 | 5.96 | – | –
